Like-named read-outs stand apart in the source and are kept apart here.
Assays:
VEGFR2 and FGFR1 = experiment: Selection of compounds that selectively inhibit both VEGFR2 and FGFR1 (average relative IC50); assay type: biochemical; conditions: average of VEGFR2 and FGFR1 relative IC50
any gene target = conditions: cited from earlier work
VEGFR2 [1] = target: T1, VEGFR2 (Homo sapiens, UniProt P35968); conditions: reported IC50 to VEGFR2; Table 3, selective inhibitors of VEGFR2; read-out: VEGFR2 IC50_μM; cited from earlier work
VEGFR2 [2] = target: T1, VEGFR2; conditions: relative IC50: reported IC50 toward VEGFR2 divided by next lowest reported IC50 to any gene target
[3] = lowest reported IC50 to any gene target, read-out: min IC50
[4] = next lowest IC50 value to any gene target, Table 3, read-out: Min IC50_μM

T1 sequence (P35968 20-1356, species assumed): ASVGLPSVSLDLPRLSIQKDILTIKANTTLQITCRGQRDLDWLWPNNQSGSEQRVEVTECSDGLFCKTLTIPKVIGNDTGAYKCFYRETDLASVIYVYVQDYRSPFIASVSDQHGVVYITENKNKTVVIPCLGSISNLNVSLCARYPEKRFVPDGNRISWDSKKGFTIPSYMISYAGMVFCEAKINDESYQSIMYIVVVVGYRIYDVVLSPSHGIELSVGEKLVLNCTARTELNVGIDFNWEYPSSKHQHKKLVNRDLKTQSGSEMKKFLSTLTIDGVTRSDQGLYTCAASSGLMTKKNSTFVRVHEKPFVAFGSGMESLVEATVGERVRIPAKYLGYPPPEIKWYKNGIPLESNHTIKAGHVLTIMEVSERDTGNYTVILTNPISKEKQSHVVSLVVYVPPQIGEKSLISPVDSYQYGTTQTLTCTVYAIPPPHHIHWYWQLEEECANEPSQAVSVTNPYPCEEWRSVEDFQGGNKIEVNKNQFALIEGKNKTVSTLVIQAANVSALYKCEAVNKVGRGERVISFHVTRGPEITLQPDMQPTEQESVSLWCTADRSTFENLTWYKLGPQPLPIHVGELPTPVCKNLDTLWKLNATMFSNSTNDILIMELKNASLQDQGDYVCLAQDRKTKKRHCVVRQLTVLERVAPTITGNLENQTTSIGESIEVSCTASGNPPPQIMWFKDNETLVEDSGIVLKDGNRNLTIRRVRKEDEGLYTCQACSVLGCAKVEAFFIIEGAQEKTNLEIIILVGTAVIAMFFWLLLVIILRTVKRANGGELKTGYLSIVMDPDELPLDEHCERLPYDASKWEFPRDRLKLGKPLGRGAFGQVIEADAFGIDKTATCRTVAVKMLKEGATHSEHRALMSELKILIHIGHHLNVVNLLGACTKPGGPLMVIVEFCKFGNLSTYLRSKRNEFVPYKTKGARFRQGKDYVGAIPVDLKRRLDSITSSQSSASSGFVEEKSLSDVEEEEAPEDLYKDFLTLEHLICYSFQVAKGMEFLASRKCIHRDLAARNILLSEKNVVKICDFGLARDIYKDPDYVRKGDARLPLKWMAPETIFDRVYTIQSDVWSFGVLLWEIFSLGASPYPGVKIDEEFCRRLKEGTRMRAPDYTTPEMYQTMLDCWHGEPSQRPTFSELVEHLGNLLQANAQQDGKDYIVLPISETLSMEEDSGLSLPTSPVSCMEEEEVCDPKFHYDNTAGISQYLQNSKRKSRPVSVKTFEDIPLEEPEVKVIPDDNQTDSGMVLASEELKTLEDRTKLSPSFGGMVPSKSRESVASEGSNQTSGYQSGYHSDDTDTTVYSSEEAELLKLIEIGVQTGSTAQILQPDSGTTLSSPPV

Compound | avg rIC50 (VEGFR2 and FGFR1) | VEGFR2, rIC50 (VEGFR2 [2]) | other results
COc1cc(OC)cc(-c2cc3cnc(NCCCN4CCOCC4)cc3nc2NC(=O)NC(C)(C)C)c1 [compound 5329004, 1,6-Naphthyridine deriv. 20, reference compound] | 5.0 | – | –
COc1cc(OC)cc(-c2cc3cnc(NCCCN4CCN(C)CC4)cc3nc2NC(=O)NC(C)(C)C)c1 [compound 5330127, 1,6-Naphthyridine 17, reference compound] | 3.0 | – | –
CCN(CC)CCCNc1cc2nc(NC(=O)NC(C)(C)C)c(-c3cc(OC)cc(OC)c3)cc2cn1 [compound 5330128, 1,6-Naphthyridine 18, reference compound] | 4.3 | – | –
COc1cc(OC)cc(-c2cc3cnc(NCCCCN4CCOCC4)cc3nc2NC(=O)NC(C)(C)C)c1 [compound 5330129, 1,6-Naphthyridine 19, reference compound] | 1.5 | – | –
COc1cc(OC)cc(-c2cc3cnc(NCCCO)cc3nc2NC(=O)NC(C)(C)C)c1 [compound 5330157, 1,6-Naphthyridine 75, reference compound] | 1.4 | – | –
COc1cc(OC)cc(-c2cc3cnc(NCCCCCO)cc3nc2NC(=O)NC(C)(C)C)c1 [compound 5330159, 1,6-Naphthyridine 77, reference compound] | 1.5 | – | –
CCNC(=O)Nc1nc2nc(NCCCN3CCN(C)CC3)ncc2cc1-c1cc(OC)cc(OC)c1 [compound 5330166, Pyrido[2,3-d]pyrimidine 102, reference compound] | 2.6 | – | –
COc1cc(OC)cc(-c2cc3cnc(NCCCN4CCN(C)CC4)nc3nc2NC(=O)NC(C)(C)C)c1 [compound 5330167, Pyrido[2,3-d]pyrimidine 103, reference compound] | 2.3 | – | –
CCNC(=O)Nc1nc2nc(NCCCCN(CC)CC)ncc2cc1-c1cc(OC)cc(OC)c1 [compound 5330168, Pyrido[2,3-d]pyrimidine 104, reference compound] | 3.4 | – | –
COc1cc(OC)cc(-c2cc3cnc(NCCCO)nc3nc2NC(=O)NC(C)(C)C)c1 [compound 5330169, Pyrido[2,3-d]pyrimidine 105, reference compound] | 2.3 | – | –
CONC(=O)c1cc(Nc2ncnn3cc(-c4ncc(C)o4)c(C(C)C)c23)c(F)cc1F [compound 10388612, 2,4-Difluoro-5-[5-isopropyl-6-(5-methyl-oxazol-2-yl)-pyrrolo[2,1-f][1,2,4]triazin-4-ylamino]-N-methoxy-benzamide, reference compound] | – | 1.0 | IC50 (any gene target; [3]): 1 nM; IC50 (any gene target; [4]): 1.1 nM; IC50 (VEGFR2 [1]): 1.1 nM
CONC(=O)c1cc(Nc2ncnn3cc(-c4nnc(CC5CC5)o4)c(C(C)C)c23)c(F)cc1F [compound 11155938, 5-[6-(5-Cyclopropylmethyl-[1,3,4]oxadiazol-2-yl)-5-isopropyl-pyrrolo[2,1-f][1,2,4]triazin-4-ylamino]-2,4-difluoro-N-methoxy-benzamide, reference compound] | – | 1.0 | IC50 (any gene target; [3]): 4 nM; IC50 (any gene target; [4]): 4 nM; IC50 (VEGFR2 [1]): 4 nM
CONC(=O)c1cc(Nc2ncnn3cc(-c4nc(C)no4)c(C(C)C)c23)c(F)cc1F [compound 11419379, 2,4-Difluoro-5-[5-isopropyl-6-(3-methyl-[1,2,4]oxadiazol-5-yl)-pyrrolo[2,1-f][1,2,4]triazin-4-ylamino]-N-methoxy-benzamide, reference compound] | – | 1.0 | IC50 (any gene target; [3]): 7 nM; IC50 (any gene target; [4]): 6.8 nM; IC50 (VEGFR2 [1]): 6.8 nM
CONC(=O)c1cc(Nc2ncnn3cc(-c4nnc(C5CC5)o4)c(C(C)C)c23)c(F)cc1F [compound 11465545, 5-[6-(5-Cyclopropyl-[1,3,4]oxadiazol-2-yl)-5-isopropyl-pyrrolo[2,1-f][1,2,4]triazin-4-ylamino]-2,4-difluoro-N-methoxy-benzamide, reference compound] | – | 1.0 | IC50 (any gene target; [3]): 4 nM; IC50 (any gene target; [4]): 3.6 nM; IC50 (VEGFR2 [1]): 3.6 nM
Nc1c(C(=O)c2cc3cc(CN4CCOCC4)ccc3[nH]2)cnn1-c1cc(O)ccc1Cl [compound 134156584, [5-Amino-1-(2-chloro-5-hydroxyphenyl)pyrazol-4-yl]-[5-(morpholin-4-ylmethyl)-1H-indol-2-yl]methanone] | – | 5.6 | –
CCN1CCC(Nc2ccc3[nH]c(O)c(C(=C4N=c5ccccc5=N4)c4ccccc4)c3c2)CC1 [compound 135405015, 3-[Benzimidazol-2-ylidene(phenyl)methyl]-5-[(1-ethylpiperidin-4-yl)amino]-1H-indol-2-ol] | – | 2.0 | –
COC(=O)c1ccc2c(c1)NC(=O)/C2=C(\Nc1ccc(N(CCCN(C)C)C(C)=O)cc1)c1ccccc1 [compound 135405065] | – | 3.0 | –
COC(=O)c1ccc2c(C(=Nc3ccc(C(=O)N(C)CCN(C)C)cc3)c3ccccc3)c(O)[nH]c2c1 [compound 135452890, Methyl 3-[N-[4-[2-(dimethylamino)ethyl-methylcarbamoyl]phenyl]-C-phenylcarbonimidoyl]-2-hydroxy-1H-indole-6-carboxylate] | – | 2.2 | –
COC(=O)c1ccc2c(c1)NC(=O)/C2=C(\Nc1ccc(N(CC(=O)N(C)C)C(C)=O)cc1)c1ccccc1 [compound 135456052, Methyl (3Z)-3-[[4-[acetyl-[2-(dimethylamino)-2-oxoethyl]amino]anilino]-phenylmethylidene]-2-oxo-1H-indole-6-carboxylate] | – | 1.3 | –
COC(=O)c1ccc2c(c1)NC(=O)/C2=C(\Nc1ccc(N(CCN(C)C)S(C)(=O)=O)cc1)c1ccccc1 [compound 135456078, Methyl (3Z)-3-[[4-[2-(dimethylamino)ethyl-methylsulfonylamino]anilino]-phenylmethylidene]-2-oxo-1H-indole-6-carboxylate] | – | 2.3 | –
CCN1CCC(Nc2ccc3[nH]c(O)c(C(=C4N=c5ccccc5=N4)c4cccc(F)c4)c3c2)CC1 [compound 135488014, 3-[Benzimidazol-2-ylidene-(3-fluorophenyl)methyl]-5-[(1-ethylpiperidin-4-yl)amino]-1H-indol-2-ol] | – | 0.6 | –
CCN1CCC(Nc2ccc3[nH]c(O)c(C(=C4N=c5ccccc5=N4)c4ccc(C)cc4)c3c2)CC1 [compound 135507297, 3-[Benzimidazol-2-ylidene-(4-methylphenyl)methyl]-5-[(1-ethylpiperidin-4-yl)amino]-1H-indol-2-ol] | – | 1.6 | –
COC(=O)c1ccc2c(c1)NC(=O)C2=C(Nc1ccc(CN(C)C)cc1)c1ccccc1 [compound 135522918, Methyl 3-[[4-[(dimethylamino)methyl]anilino]-phenylmethylidene]-2-oxo-1H-indole-6-carboxylate] | – | 2.3 | –
COC(=O)c1ccc2c(c1)NC(=O)/C2=C(\Nc1ccc(N(CCN(C)C)C(C)=O)cc1)c1ccccc1 [compound 135528963, Methyl (3Z)-3-[[4-[acetyl-[2-(dimethylamino)ethyl]amino]anilino]-phenylmethylidene]-2-oxo-1H-indole-6-carboxylate] | – | 2.4 | –
CCN1CCC(Nc2ccc3[nH]c(O)c(C(=C4N=c5ccccc5=N4)c4cc(F)cc(F)c4)c3c2)CC1 [compound 135546228, 3-[Benzimidazol-2-ylidene-(3,5-difluorophenyl)methyl]-5-[(1-ethylpiperidin-4-yl)amino]-1H-indol-2-ol] | – | 0.7 | –
